Data: patent publication US20120225123A1, “Use of Synergistic Combinations of an Avermectin and an Antineoplastic Compounds for the Treatment of Hematological Malignancies” (UNIVERSITY HEALTH NETWORK, priority 2009, published 2012)
Peptide text beside a SMILES is read from it. * marks the point of attachment. Cbz = O=C(OCc1ccccc1)*; CH2F = FC*

Columns and labels:
OCI-AML2 cells [1] = test: Cell death, viability and cell cycle in OCI-AML2 cells; type: cell-based, human; settings: for effect of calcium chelation on IVM-induced cell death: chelation of intra and extracellular calcium
Procedure: Cell growth and viability was assessed by the MTS assay (Promega, Madison, Wis.) according to the manufacturer's instructions and as previously described.^12 Cell death was measured by Annexin V-fluoroscein isothiocyanate (FITC) and Propidium Iodide (PI; Biovision Research Products, Mountain View, Calif.) staining and flow cytometry according to the manufacturer's instructions and as previously described.^13 To identify CD34+ cells, a normal PBSC sample was co-stained with PE-anti-CD34+ (Beckman Coulter, Marseille France), and APC-anti-CD45 (Becton Dickenson, San Jose Calif.).
Cell cycle analysis was performed as described previously.^15 Briefly, cells were harvested, washed with cold PBS, and resuspended in 80% cold ethanol. Cells were then treated with 100 ng/mL DNase-free RNase A (Invitrogen) at 37° C. for 30 min, washed with cold PBS, and resuspended in PBS with 50 μg/mL propidium iodide. DNA content was analyzed by flow cytometry (FACSCalibur; Becton Dickinson). The percentage of cells in each phase of the cell cycle was calculated with FlowJo version 8.8 (TreeStar, Ashland, Oreg.).

leukemia cells = test: Combination of IVM with albendazole, combination index; type: cell-based
OCI-AML2 cells [2] = test: Reactive oxygen species, Carboxy-H2DCFDA staining, OCI-AML2; type: cell-based, human; settings: increasing concentrations, flow cytometry
Procedure: Data were analyzed with FlowJo version 8.8 (TreeStar, Ashland, Oreg.).

[3] = system: STAT1 and target genes IFIT3, OAS1 and TRIM22 in OCI-AML2 cells; test: Gene expression by Q-RT-PCR, OCI-AML2; type: cell-based, human; settings: pre-treatment with NAC
Procedure: Leukemia cells were treated with buffer control or ivermectin (3 μM) for 30 and 40 hours. After treatment, cells were harvested, total RNA was isolated. Total RNA (10 μg) was used for cRNA amplification using the Invitrogen SuperScript kit (Life Technologies, Inc., Burlington, ON, Canada). Amplification and biotin labeling of antisense cRNA was performed using the Enzo® BioArray™ High Yield™ RNA transcript labeling kit (Enzo Diagnostics, Farmingdale, N.Y., USA), according to the manufacturer's instructions. RNA was then hybridized to Affymetrix HG U133 Plus 2.0 gene expression oligonucleotide arrays (Affymetrix, Santa Clara, Calif., USA). Microarray slides were scanned using the GeneArray 2500 scanner (Agilent Technologies). Microarray data were analyzed using GeneSpring GX v10.0 (Agilent), and lists of genes deregulated>2-fold after 30 and 40 hr ivermectin treatment were derived. Pathways and gene ontology analyses were carried out using Ingenuity Pathways Analysis (www.ingenuity.com); and the Database for Annotation, Visualization and Integrated Discovery (DAVID; http://david.abcc.ncifcrf.gov). […]
Gene expression changes were evaluated in OCI AML2, 0937, HL60, DU145 and PPC-1 cells by real-time Q-RT-PCRas described previously^15, 47. The expression level of STAT1A, STAT1B, TRIM22, OAS1 and IFIT3 before and after incubation of leukemia cells with ivermectin was evaluated.

SMILES: COC(=O)C[C@H](NC(=O)[C@H](C)NC(=O)[C@@H](NC(=O)OCc1ccccc1)C(C)C)C(=O)CF [z-VAD-fmk] (Cbz-Val-Ala-Asp(OMe)-CH2F)
- effect of pan-caspase inhibitor co-treatment on ivermectin-induced cell death (OCI-AML2 cells [1]; co-treatment with ivermectin, 24 hours, Annexin V-PI): abrogated cell death

SMILES: CCCSc1ccc2nc(NC(=O)OC)[nH]c2c1 [albendazole]
- CI value at the ED25 (leukemia cells): 1.59
- CI value at the ED75 (leukemia cells): 0.89
- drug interaction with IVM (leukemia cells): antagonized the anti-leukemic effects of IVM

SMILES: COc1cccc2c1C(=O)c1c(O)c3c(c(O)c1C2=O)C[C@@](O)(C(C)=O)C[C@@H]3O[C@H]1C[C@H](N)[C@H](O)[C@H](C)O1 [daunorubicin]
- ROS production (OCI-AML2 cells [2]): increase ROS production

SMILES: CC(=O)N[C@@H](CS)C(=O)O [NAC, N-acetyl-L-Cysteine]
- effect of free radical scavenger on IVM-induced cell death (OCI-AML2 cells [1]; treated with IVM along with NAC): abrogated IVM-induced cell death
- effect of NAC pre-treatment on ivermectin upregulation of STAT1 genes [3]: blocked their upregulation

SMILES: Nc1ccn([C@@H]2O[C@H](CO)[C@@H](O)[C@@H]2O)c(=O)n1 [cytarabine]
- ROS production (OCI-AML2 cells [2]): increase ROS production

SMILES: O=C(O)CN(CCN(CC(=O)O)CC(=O)O)CC(=O)O [EDTA]
- effect of calcium chelation on IVM-induced cell death (OCI-AML2 cells [1]): did not inhibit IVM-induced cell death

SMILES: CC(=O)OCOC(=O)CN(CC(=O)OCOC(C)=O)c1ccccc1OCCOc1ccccc1N(CC(=O)OCOC(C)=O)CC(=O)OCOC(C)=O [BAPTA-AM]
- effect of calcium chelation on IVM-induced cell death (OCI-AML2 cells [1]): did not inhibit IVM-induced cell death
